# Test results from US20050101595A1, “N-containing cycloalkyl-substituted amino-thiazole derivatives and pharmaceutical compositions for inhibiting cell proliferation and methods for their use” (PFIZER INC., priority 2003, published 2005).
# Counter-ions that a name gives are not always drawn. Like-named read-outs stand apart in the source and are kept apart here.
# Tests used:
# [1] = biological target: human CDK4 and genetically truncated (1-264) cyclin D3 (Homo sapiens, UniProt P11802); assay: Inhibition of CDK4/Cyclin D Retinoblastoma Kinase Activity; format: biochemical; settings: for Ki: apparent Ki, CDK4/truncated cyclin D3, Rb fragment substrate, 25 μM ATP
# Procedure, shortened: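 Read-out: 32P/33P incorporation into Rb fragment (386-928) captured on nitrocellulose, phosphorimager. Enzyme 5 nM CDK4/cyclin D3(1-264) from insect cells; ATP 25 μM, pH 7.4, 30 °C, 20 min (60 min for tight binders). Ki from competitive fits.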
# [2] = biological target: CDK2/Cyclin A (Homo sapiens, UniProt P24941); assay: Inhibition of CDK2/Cyclin A Retinoblastoma Kinase Activity; format: biochemical; settings: for Ki: apparent Ki, CDK2/proteolyzed cyclin A, Rb fragment substrate, 25 μM ATP; for CDK2 % Inhibition At 0.03 μM: Table 2
# Procedure, shortened: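 Human CDK2, baculovirus/insect-cell expressed, complexed with proteolyzed cyclin A (10 nM or 19 nM CDK2) phosphorylates an Rb fragment with 25 μM [32P/33P]ATP at pH 7.4, 30° C, for 60 or 75 minutes under initial-rate conditions. Filter-captured radioactivity is read by phosphorimager; apparent Ki from competitive-inhibition fits.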
# [3] = system: HCT-116 cell line; assay: Inhibition of cell growth, tetrazolium salt (MTT) assay; format: cell-based; settings: for IC50: Homo sapiens, HCT-116, 120 h, MTT, three to five days, read-out: HCT-116 IC50; for HCT-116 % Inhibition at 0.25 μM: 0.25 μM compound
# Procedure, shortened: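 Growth inhibition is scored relative to cells receiving only 0.5% (v/v) DMSO. Plated cells rest 4 h, then take compound for three to five days at 37° C; MTT reduction to formazan is read at 540 nm.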
# [4] = 0.1 μM compound, HCT-116, Table 4
# human CDK4 and genetically truncated (1-264) cyclin D3, sequence (P11802 whole entry, the tested form may be a part): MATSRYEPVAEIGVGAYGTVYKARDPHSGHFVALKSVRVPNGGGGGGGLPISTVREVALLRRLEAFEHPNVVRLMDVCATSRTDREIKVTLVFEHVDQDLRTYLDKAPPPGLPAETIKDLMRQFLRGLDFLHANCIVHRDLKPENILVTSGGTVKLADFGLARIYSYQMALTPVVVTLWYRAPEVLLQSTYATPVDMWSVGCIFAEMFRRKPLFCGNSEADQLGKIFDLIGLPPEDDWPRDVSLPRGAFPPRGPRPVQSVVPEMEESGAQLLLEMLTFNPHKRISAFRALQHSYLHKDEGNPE
# human CDK4 and genetically truncated (1-264) cyclin D3, sequence (P30281 1-264 partner): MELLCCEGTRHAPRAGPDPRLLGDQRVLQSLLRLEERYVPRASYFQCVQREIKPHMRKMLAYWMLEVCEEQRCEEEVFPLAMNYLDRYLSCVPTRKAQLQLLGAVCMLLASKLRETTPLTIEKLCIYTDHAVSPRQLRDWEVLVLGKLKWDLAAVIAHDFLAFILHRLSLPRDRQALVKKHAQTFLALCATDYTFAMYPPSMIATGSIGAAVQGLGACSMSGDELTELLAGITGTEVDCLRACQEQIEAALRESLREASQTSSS
compound,measurement,setting,value
"Nc1nc(NC2CCN(S(=O)(=O)c3ccc(N4CC[S+]([O-])CC4)nc3)CC2)sc1C(=O)c1c(F)cccc1F [Example G4, 1-(4-Amino-2-{1-[6-(1-oxo-thiomorpholine-4-yl)-pyridine-3-sulfonyl]-piperidin-4-ylamino}-thiazol-5-yl)-1-(2,6-difluoro-phenyl)-methanone]",Ki,[1],0.94 nM
same,Ki,[2],1.4 nM
same,IC50,[3]; first HCT-116 column (c4),1500 nM
same,IC50,[3]; second HCT-116 column (c5),5000 nM
Nc1nc(NC2CCN(S(=O)(=O)CCCn3ccnc3)CC2)sc1C(=O)c1c(F)cccc1F [Example K2],Ki,[1],4.7 nM
same,Ki,[2],6.3 nM
same,IC50,[3]; first HCT-116 column (c4),2300 nM
same,IC50,[3]; second HCT-116 column (c5),> 5000 nM
Nc1nc(NC2CCN(C(=O)c3cnc(Cl)c(Cl)c3)CC2)sc1C(=O)c1c(F)cccc1F [Example R30],CDK4 % Inhibition at 0.03 μM,[1]; at 0.03 μM,63%
same,CDK2 % Inhibition at 0.03 μM,[2]; at 0.03 μM,31%
same,HCT-116 % Inhibition at 0.1 μM,"[3]; HCT-116 cells, at 0.1 μM",13%
same,HCT-116 5 Inhibition at 0.25 μM,[3]; HCT-116 cells,43
"Nc1nc(NC2CCN(S(=O)(=O)c3ccc(CCN4CCOCC4)nc3)CC2)sc1C(=O)c1c(F)cccc1F [Example N3, (4-Amino-2-{1-[6-(2-morpholin-4-yl-ethyl)-pyridine-3-sulfonyl]-piperidin-4-ylamino}-thiazol-5-yl)-(2,6-difluoro-phenyl)-methanone Hydrochloride Salt.]",Ki,[1],0.76 nM
same,Ki,[2],1.1 nM
same,IC50,[3]; first HCT-116 column (c4),170 nM
same,IC50,[3]; second HCT-116 column (c5),> 500 nM
Nc1nc(NC2CCN(C(=O)Nc3ccc(-c4ccccc4)cc3)CC2)sc1C(=O)c1c(F)cccc1F [Example O63],CDK4 % Inhibition at 0.03 μM,"[1]; 0.03 μM compound, Table 2",4%
same,CDK2 % Inhibition At 0.03 μM,[2]; 0.03 μM compound,28%
same,HCT-116 % Inhibition at 0.25 μM,"[3]; HCT-116, Table 2",40%
Nc1nc(NC2CCN(C(=O)Nc3ccccc3Oc3ccccc3)CC2)sc1C(=O)c1c(F)cccc1F [Example O82],CDK4 % Inhibition at 0.03 μM,"[1]; 0.03 μM compound, Table 2",4%
same,CDK2 % Inhibition At 0.03 μM,[2]; 0.03 μM compound,34%
same,HCT-116 % Inhibition at 0.25 μM,"[3]; HCT-116, Table 2",34%
CCOC(=O)C(=O)N1CCC(Nc2nc(N)c(C(=O)c3c(F)cccc3F)s2)CC1 [Example Q39],CDK4 % Inhibition at 0.03 μM,"[1]; 0.03 μM compound, Table 4",17%
same,CDK2 % Inhibition at 0.03 μM,"[2]; 0.03 μM compound, Table 4",−13%
same,HCT-116 % Inhibition at 0.1 μM,[3]; [4],0%
same,HCT-116 % Inhibition at 0.25 μM,"[3]; HCT-116, Table 4",25%
CN(C)S(=O)(=O)N1CCC(Nc2nc(N)c(C(=O)c3c(F)cccc3F)s2)CC1 [Example P7],CDK4 % Inhibition at 0.03 μM,"[1]; 0.03 μM compound, Table 3",47%
same,CDK2 % Inhibition at 0.03 μM,"[2]; 0.03 μM compound, Table 3",49%
same,HCT-116 % Inhibition at 0.1 μM,"[3]; 0.1 μM compound, HCT-116, Table 3",25%
same,HCT-116 % Inhibition at 0.25 μM,"[3]; HCT-116, Table 3",23%
"CN(C)[C@@H](Cc1ccccc1)C(=O)N1CCC(Nc2nc(N)c(C(=O)c3c(F)cccc3F)s2)CC1 [Example D4, (4-[4-Amino-5-(2,6-difluoro-benzoyl)-thiazol-2-ylamino}-piperidin-1-yl)-2S-dimethylamino-phenyl-propan-1-one]",Ki,[1],460 nM
same,Ki,[2],2600 nM
same,IC50,[3]; first HCT-116 column (c4),> 5000 nM
Nc1nc(NC2CCN(C(=O)c3cc(Cl)ccc3O)CC2)sc1C(=O)c1c(F)cccc1F [Example R120],CDK4 % Inhibition at 0.03 μM,[1]; at 0.03 μM,4%
same,CDK2 % Inhibition at 0.03 μM,[2]; at 0.03 μM,18%
same,HCT-116 % Inhibition at 0.1 μM,"[3]; HCT-116 cells, at 0.1 μM",0%
same,HCT-116 5 Inhibition at 0.25 μM,[3]; HCT-116 cells,47
"CN(C)CCc1ncc(S(=O)(=O)N2CCC(Nc3nc(N)c(C(=O)c4c(F)cccc4F)s3)CC2)cn1 [Example N12, (4-Amino-2-{1-[2-(2-dimethylamino-ethyl)-pyrimidine-5-sulfonyl]-piperidine-4-ylamino}-thiazol-5-yl)-(2,6-difluoro-phenyl)-methanone Hydrochloride Salt.]",Ki,[1],0.62 nM
same,Ki,[2],1.7 nM
same,IC50,[3]; first HCT-116 column (c4),67 nM
same,IC50,[3]; second HCT-116 column (c5),130 nM
Nc1nc(NC2CCN(C(=O)c3ccc(-c4ccccc4)cc3)CC2)sc1C(=O)c1c(F)cccc1F [Example R149],CDK4 % Inhibition at 0.03 μM,[1]; at 0.03 μM,51%
same,CDK2 % Inhibition at 0.03 μM,[2]; at 0.03 μM,28%
same,HCT-116 % Inhibition at 0.1 μM,"[3]; HCT-116 cells, at 0.1 μM",11%
same,HCT-116 5 Inhibition at 0.25 μM,[3]; HCT-116 cells,43
"CC1(C)CN(CCCS(=O)(=O)N2CCC(Nc3nc(N)c(C(=O)c4c(F)cccc4F)s3)CC2)CCN1 [Example K14, 1-(4-Amino-2-{1-[3-(3,3-dimethylpiperazin-1-yl)propane-1-sulfonyl]-piperidin-4-ylamino}-thiazol-5-yl)-1-(2,6-difluoro-phenyl)-methanone.]",Ki,[1],2.9 nM
same,Ki,[2],7.9 nM
same,IC50,[3]; first HCT-116 column (c4),3300 nM
same,IC50,[3]; second HCT-116 column (c5),> 5000 nM
CC(NC(=O)N1CCC(Nc2nc(N)c(C(=O)c3c(F)cccc3F)s2)CC1)c1cccc2ccccc12 (centres unmarked) [Example O67],CDK4 % Inhibition at 0.03 μM,"[1]; 0.03 μM compound, Table 2",8%
same,CDK2 % Inhibition At 0.03 μM,[2]; 0.03 μM compound,31%
same,HCT-116 % Inhibition at 0.25 μM,"[3]; HCT-116, Table 2",50%
Nc1nc(NC2CCN(C(=O)c3ccccc3F)CC2)sc1C(=O)c1c(F)cccc1F [Example R104],CDK4 % Inhibition at 0.03 μM,[1]; at 0.03 μM,−8%
same,CDK2 % Inhibition at 0.03 μM,[2]; at 0.03 μM,5%
same,HCT-116 % Inhibition at 0.1 μM,"[3]; HCT-116 cells, at 0.1 μM",0%
same,HCT-116 5 Inhibition at 0.25 μM,[3]; HCT-116 cells,38
Nc1nc(NC2CCN(C(=O)CCc3ccccc3)CC2)sc1C(=O)c1c(F)cccc1F [Example Q48],CDK4 % Inhibition at 0.03 μM,"[1]; 0.03 μM compound, Table 4",48%
same,CDK2 % Inhibition at 0.03 μM,"[2]; 0.03 μM compound, Table 4",5%
same,HCT-116 % Inhibition at 0.1 μM,[3]; [4],0%
same,HCT-116 % Inhibition at 0.25 μM,"[3]; HCT-116, Table 4",19%
Nc1nc(NC2CCN(S(=O)(=O)c3ccc(-c4ncc[nH]4)cc3)CC2)sc1C(=O)c1c(F)cccc1F [Example F34],Ki,[1],0.51 nM
same,Ki,[2],< 1 nM
same,IC50,[3]; first HCT-116 column (c4),1500 nM
same,IC50,[3]; second HCT-116 column (c5),2600 nM
Nc1nc(NC2CCN(C(=O)C3CC3)CC2)sc1C(=O)c1c(F)cccc1F [Example R89],CDK4 % Inhibition at 0.03 μM,[1]; at 0.03 μM,5%
same,CDK2 % Inhibition at 0.03 μM,[2]; at 0.03 μM,3%
same,HCT-116 % Inhibition at 0.1 μM,"[3]; HCT-116 cells, at 0.1 μM",0%
same,HCT-116 5 Inhibition at 0.25 μM,[3]; HCT-116 cells,46
Nc1nc(NC2CCN(C(=O)COCc3ccccc3)CC2)sc1C(=O)c1c(F)cccc1F [Example Q75],CDK4 % Inhibition at 0.03 μM,"[1]; 0.03 μM compound, Table 4",20%
same,CDK2 % Inhibition at 0.03 μM,"[2]; 0.03 μM compound, Table 4",9%
same,HCT-116 % Inhibition at 0.1 μM,[3]; [4],5%
same,HCT-116 % Inhibition at 0.25 μM,"[3]; HCT-116, Table 4",39%
"COc1ccc(/C=C/C(=O)N2CCC(Nc3nc(N)c(C(=O)c4c(F)cccc4F)s3)CC2)c(Cl)c1OC [Example C7, 1-{4-[4-Amino-5-(2,6-difluoro-benzoyl)-thiazol-2-ylamino]-piperidin-1-yl}-3-(2-chloro-3,4-dimethoxy-phenyl)-propenone]",Ki,[1],40 nM
same,Ki,[2],32 nM
same,IC50,[3]; first HCT-116 column (c4),600 nM
same,IC50,[3]; second HCT-116 column (c5),1600 nM
Cc1ccc(C(=O)N2CCC(Nc3nc(N)c(C(=O)c4c(F)cccc4F)s3)CC2)c(C)c1 [Example R126],CDK4 % Inhibition at 0.03 μM,[1]; at 0.03 μM,57%
same,CDK2 % Inhibition at 0.03 μM,[2]; at 0.03 μM,43%
same,HCT-116 % Inhibition at 0.1 μM,"[3]; HCT-116 cells, at 0.1 μM",0%
same,HCT-116 5 Inhibition at 0.25 μM,[3]; HCT-116 cells,33
"Nc1nc(NC2CCN(S(=O)(=O)c3ccc(-c4nnn[nH]4)cc3)CC2)sc1C(=O)c1c(F)cccc1F [Example J4, 1-(4-Amino-2-{1-[4-(1H-tetrazol-5-yl)-benzenesulfonyl]-piperidin-4ylamino}-thiazol-5-yl)-1-(2,6-difluoro-phenyl)-methanone Trifluoroacetic Acid Salt]",Ki,[1],1.7 nM
same,Ki,[2],< 1 nM
same,IC50,[3]; first HCT-116 column (c4),> 5000 nM
same,IC50,[3]; second HCT-116 column (c5),> 5000 nM
COc1cccc(NC(=O)N2CCC(Nc3nc(N)c(C(=O)c4c(F)cccc4F)s3)CC2)c1 [Example O15],CDK4 % Inhibition at 0.03 μM,"[1]; 0.03 μM compound, Table 2",4%
same,CDK2 % Inhibition At 0.03 μM,[2]; 0.03 μM compound,36%
same,HCT-116 % Inhibition at 0.25 μM,"[3]; HCT-116, Table 2",13%
Nc1nc(NC2CCN(C(=O)c3ccc(Cl)c(Cl)c3)CC2)sc1C(=O)c1c(F)cccc1F [Example R133],CDK4 % Inhibition at 0.03 μM,[1]; at 0.03 μM,52%
same,CDK2 % Inhibition at 0.03 μM,[2]; at 0.03 μM,21%
same,HCT-116 % Inhibition at 0.1 μM,"[3]; HCT-116 cells, at 0.1 μM",5%
same,HCT-116 5 Inhibition at 0.25 μM,[3]; HCT-116 cells,56
"Nc1nc(NC2CCN(S(=O)(=O)c3cccs3)CC2)sc1C(=O)c1c(F)cccc1F [Example F51, {4-Amino-2-[1-(thiophene-2-sulfonyl)-piperidin4-ylamino]-thiazol-5-yl}-(2,6-difluoro-phenyl)-methanone]",Ki,[1],5.5 nM
same,Ki,[2],1.5 nM
same,IC50,[3]; first HCT-116 column (c4),300 nM
same,IC50,[3]; second HCT-116 column (c5),630 nM
